Reference: US11957699B2, “Composition comprising punicalagin for inhibiting PAR2 activity” (INDUSTRY-ACADEMIC COOPERATION FOUNDATION, YONSEI UNIVERSITY, priority 2018, dated 2024)

Key:
NIH3T3 cells = experiment: Cell viability of NIH3T3 cells; type: cell-based; details: up to 30 μM
Protocol: In order to determine the toxicity of punicalagin, the effect of NIH3T3 cells on cell viability and the weight change of 8-week-old wild-type mice were evaluated, and the heart, liver, and lung were extracted from 30-week-old lupus mice and were histologically evaluated by performing hematoxylin-eosin staining.

[1] = test system: conjunctival epithelial cells; experiment: IL-6 secretion by house dust mite (HDM) in conjunctival epithelial cells (enzyme immunoassay); type: cell-based, human; details: 10 μg/mL HDM 24 hours
Protocol: Next, conjunctival epithelial cells showing a high response to the concentration increase of intracellular calcium ions by HDM and PAR2-AP were treated with 1, 3, and 10 μM punicalagin, and after treating with 10 μg/mL HDM for 24 hours, secreted IL-6 cytokines were measured by enzyme immunoassay. As a result, it was confirmed that 1, 3, and 10 μM punicalagin inhibited about 50, 91, and 93% of IL-6 cytokines that were increased by HDM, respectively (panel C of FIG. 5).

PAR2 = target: T1, PAR2 (Homo sapiens, UniProt P55085); experiment: CaCC-dependent Cl- secretion (short-circuit current, Ussing chamber) by PAR2-AP in primary cultured human conjunctival epithelial cells; type: cell-based; set-up: endogenous in cells; details: 10 μM for 10 minutes, 100 μM PAR2-AP, after 100 μM amiloride
T1 sequence (P55085 26-397): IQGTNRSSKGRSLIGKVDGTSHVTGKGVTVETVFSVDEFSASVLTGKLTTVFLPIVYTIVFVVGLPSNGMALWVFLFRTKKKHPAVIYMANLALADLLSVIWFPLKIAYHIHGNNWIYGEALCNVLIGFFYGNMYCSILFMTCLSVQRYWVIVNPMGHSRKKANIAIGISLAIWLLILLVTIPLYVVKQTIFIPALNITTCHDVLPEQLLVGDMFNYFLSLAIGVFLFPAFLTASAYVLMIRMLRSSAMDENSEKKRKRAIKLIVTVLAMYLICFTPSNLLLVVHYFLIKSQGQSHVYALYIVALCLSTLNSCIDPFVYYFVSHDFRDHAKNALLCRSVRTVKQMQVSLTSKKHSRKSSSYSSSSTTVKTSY
Protocol: After primary cultured human conjunctival epithelial cells expressing PAR2 were cultured in a transwell, followed by removal of a culture medium on the side of an apical membrane, retinoic acid was added to the side of a basolateral membrane to differentiate for about 2 weeks (Invest Ophthalmol Vis Sci. 2013 Oct. 29; 54(10): 7143-52), and then, short-circuit currents were measured using a Ussing chamber. […] Next, by treating 10 μM forskolin, which is a an activator of the cystic fibrosis transmembrane conductance regulator (CFTR), the effect of promoting Cl^− secretion by the cystic fibrosis transmembrane conductance regulator (CFTR) channel was measured, and then, by treating 10 μM CFTRihn-172(5-[(4-carboxyphenyl)methylene]-2-thioxo-3-[(3-trifluoromethyl)phenyl-4-thiazolidinone]) (J Clin Invest. 2002 December; 110(11): 1651-8), which is a CFTR inhibitor, it was confirmed that Cl^− secretion by the CFTR channel was inhibited (panel A of FIG. 3).
Meanwhile, Cl^− secretion by PAR1-AP was not measured as a result of the above experiment, and in order to confirm the inhibitory effect of Cl^− secretion during punicalagin treatment. […]

[2] = test system: NZB/W F1 mice with lupus nephritis; experiment: Lupus nephritis mouse model (NZB/W F1); type: in vivo
Protocol: With NZB/W F1 mice that were purchased from Central Lab. Animal Inc., the effect of punicalagin on symptoms of lupus nephritis was confirmed.
As control groups, there were two groups including a nephritis-induced group that was injected only with physiological saline and a nephritis-induced group that was injected with 7 mg/kg methylprednisolone (MPL), which is a standard therapeutic agent for lupus nephritis, and proteinuria was measured twice a week (panel A of FIG. 9).
Next, the protective effect of punicalagin on renal structural damage against lupus nephritis was histologically evaluated. To this end, kidneys were extracted and PAS stained in 30-week-old mice, and the degree of damage to glomeruli, ducts, and blood vessels was histologically quantified. In addition, when lupus nephritis was induced, the expressions of IgG and C3, which are autoantibodies mostly expressed in kidney tissues, were fluorescence-stained and observed under a fluorescence microscope.
In order to determine the mechanism of the alleviating effect of punicalagin on lupus nephritis, the spleen was extracted from 30-week-old mice, the spleen weight and the number of splenocytes were measured, and changes in T cells in the spleen were analyzed by FACS.
After serum was isolated from 30-week-old mice, it was analyzed by the enzyme immunoassay to determine whether punicalagin inhibited or increased cytokines that were expressed by lupus nephritis.
In order to determine the alleviating effect of punicalagin on lupus nephritis, serum was isolated from 30-week-old mice, and the expression of B cell autoantibodies was analyzed by the enzyme immunoassay.
In order to determine the alleviation mechanism of punicalagin against lupus nephritis, the expressions of VCAM-1 and ICAM-1 were analyzed by immunohistochemical staining in renal tissues of 30-week-old mice.

[3] = 3 mg/kg, 1 mg/kg, and 0.3 mg/kg
[4] = 3 mg/kg, 1 mg/kg, and 0.3 mg/kg, similar to methylprednisolone

O=CC1OC(=O)c2cc(O)c(O)c(O)c2-c2c(cc(O)c(O)c2O)C(=O)OC1C1OC(=O)c2cc(O)c(O)c(O)c2-c2c(O)c(O)c3oc(=O)c4c(c(O)c(O)c5oc(=O)c2c3c54)-c2c(cc(O)c(O)c2O)C(=O)OCC1O (centres unmarked) [punicalagin, 1,2,3,11,12,13-hexahydroxy-5,10-dioxo-8-[3,4,5,11,17,18,19,22,23,34,35-undecahydroxy-8,14,26,31-tetraoxo-9,13,25,32-tetraoxaheptacyclo[25.8.0.0^2,7.0^15,20.0^21,30.0^24,29.0^28,33]pentatnaconta-1(35),2,4,6,15,17,19,21,23,27,29,33-dodecaen-10-yl]-5,7,8,10-tetrahydrodibenzo[f,h][1,4]dioxecin-7-carbaldehyde]
effect on viability of NIH3T3 cells (NIH3T3 cells): no effect
inhibition of IL-6 cytokines increased by HDM ([1]; 1 μM): about 50%
inhibition of IL-6 cytokines increased by HDM ([1]; 3 μM): ~91%
inhibition of IL-6 cytokines increased by HDM ([1]; 10 μM): ~93%
increase in CaCC-dependent Cl- secretion on PAR2 activation (PAR2): inhibited
kidney weight ([2]; 1 mg/kg): reduced
serum expressions of anti-dsDNA, IgG1, IgG2a, IgG2b, and IgG3 ([2]; 1 mg/kg and 10 mg/kg): decreased
expression of regulatory T cells (Treg) ([2]; 3 mg/kg): significantly increased
number of CD4 T cells in the spleen and expressions of TH1, TH2, and TH17 T cells (FACS) ([2]; 3 mg/kg and 1 mg/kg): significantly reduced
lower proteinuria compared to the nephritis-induced group ([2]; 3 mg/kg and 1 mg/kg, at the level of 7 mg/kg methylprednisolone): 60%
serum creatinine concentration ([2]; 3 mg/kg group): lowest
degree of damage to glomeruli, ducts, and blood vessels (PAS staining) ([2]; 3 mg/kg, 1 mg/kg, and 0.1 mg/kg, 30-week-old mice, similar to methylprednisolone): alleviated
IgG and C3 depositions in kidney tissue (fluorescence) [2, 3]: significantly reduced
expressions of VCAM-1 and ICAM-1 in kidney tissues (immunohistochemical staining) [2, 3]: significantly reduced
serum expressions of IL-10 and TGF-β1 [2, 3]: increased
total number of splenocytes [2, 3]: not increased
serum expressions of IFN-γ, IL-17A, and IL-6 [2, 4]: reduced
weight of the spleen [2, 4]: not increased
mortality from 23 weeks to 30 weeks ([2]; 3, 1 and 0.3 mg/kg intraperitoneally three times a week): none of the subjects died
serum creatinine concentration vs nephritis-induced group ([2]; punicalagin-treated groups (3, 1, 0.3 mg/kg)): lower
